According to publication PMC3961306, “Comparison of the Cancer Gene Targeting and Biochemical Selectivities of All Targeted Kinase Inhibitors Approved for Clinical Use” (PLoS ONE, 2014):

How the values were obtained:
Test in all cases: Kinase profiling in a biochemical assay panel (mobility shift assays and ELISA), %-inhibition at 1 μM; selectivity entropy
[1] = biological target: panel of more than 300 wild-type and mutant kinases (313 kinase panel) (Homo sapiens, UniProt P29376)
[2] = biological target: panel of more than 300 wild-type and mutant kinases (313 kinase panel) (Homo sapiens, UniProt Q15759)
[3] = biological target: T1, panel of more than 300 wild-type and mutant kinases (313 kinase panel) (Homo sapiens, UniProt Q14164)
T1 sequence (Q14164 1-716): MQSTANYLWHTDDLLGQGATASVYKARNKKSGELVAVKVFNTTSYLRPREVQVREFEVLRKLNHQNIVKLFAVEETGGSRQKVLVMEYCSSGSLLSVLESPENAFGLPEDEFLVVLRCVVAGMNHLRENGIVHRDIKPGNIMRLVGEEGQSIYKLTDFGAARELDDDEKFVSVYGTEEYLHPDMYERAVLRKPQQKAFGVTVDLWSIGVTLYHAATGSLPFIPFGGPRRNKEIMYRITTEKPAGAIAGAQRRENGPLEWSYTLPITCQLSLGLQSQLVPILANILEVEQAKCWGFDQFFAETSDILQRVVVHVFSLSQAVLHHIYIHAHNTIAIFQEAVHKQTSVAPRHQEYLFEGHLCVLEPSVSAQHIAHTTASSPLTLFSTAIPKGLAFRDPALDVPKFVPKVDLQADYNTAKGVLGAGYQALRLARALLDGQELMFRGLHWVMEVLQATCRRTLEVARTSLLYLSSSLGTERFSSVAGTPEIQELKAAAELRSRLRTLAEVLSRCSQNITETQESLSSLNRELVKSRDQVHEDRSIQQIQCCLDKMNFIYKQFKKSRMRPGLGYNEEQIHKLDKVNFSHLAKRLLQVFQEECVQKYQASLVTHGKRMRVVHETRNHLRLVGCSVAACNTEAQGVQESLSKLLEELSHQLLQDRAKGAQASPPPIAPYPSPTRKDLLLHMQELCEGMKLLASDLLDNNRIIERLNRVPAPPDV

[4] = biological target: panel of more than 300 wild-type and mutant kinases (313 kinase panel) (Homo sapiens, UniProt Q5VT25)
[5] = biological target: T2, panel of more than 300 wild-type and mutant kinases (313 kinase panel) (Homo sapiens, UniProt P33981)
T2 sequence (P33981 1-857): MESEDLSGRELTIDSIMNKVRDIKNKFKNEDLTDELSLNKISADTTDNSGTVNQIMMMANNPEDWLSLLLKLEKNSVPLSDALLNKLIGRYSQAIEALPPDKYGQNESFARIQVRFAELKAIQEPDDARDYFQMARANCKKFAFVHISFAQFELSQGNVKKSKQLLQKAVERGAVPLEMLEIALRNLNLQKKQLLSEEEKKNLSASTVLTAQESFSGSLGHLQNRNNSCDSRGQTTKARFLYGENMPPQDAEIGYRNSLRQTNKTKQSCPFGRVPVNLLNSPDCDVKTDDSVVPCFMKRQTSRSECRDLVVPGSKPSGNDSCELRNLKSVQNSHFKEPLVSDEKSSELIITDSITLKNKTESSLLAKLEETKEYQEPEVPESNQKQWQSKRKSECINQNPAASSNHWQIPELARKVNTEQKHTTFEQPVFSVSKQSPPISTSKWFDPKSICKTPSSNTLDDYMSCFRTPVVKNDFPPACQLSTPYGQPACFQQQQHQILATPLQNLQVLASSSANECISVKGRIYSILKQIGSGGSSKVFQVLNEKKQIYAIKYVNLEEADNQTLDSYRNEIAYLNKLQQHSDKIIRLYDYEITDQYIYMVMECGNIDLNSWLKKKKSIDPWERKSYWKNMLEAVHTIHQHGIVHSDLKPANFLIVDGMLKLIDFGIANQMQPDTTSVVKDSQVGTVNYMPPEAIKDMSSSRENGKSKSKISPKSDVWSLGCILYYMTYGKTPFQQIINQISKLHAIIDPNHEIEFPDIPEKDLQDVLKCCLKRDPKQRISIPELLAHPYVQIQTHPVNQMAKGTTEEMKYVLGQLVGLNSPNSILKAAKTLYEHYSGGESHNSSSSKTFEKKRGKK

[6] = biological target: T3, panel of more than 300 wild-type and mutant kinases (313 kinase panel) (Homo sapiens, UniProt O14965)
T3 sequence (O14965 1-403): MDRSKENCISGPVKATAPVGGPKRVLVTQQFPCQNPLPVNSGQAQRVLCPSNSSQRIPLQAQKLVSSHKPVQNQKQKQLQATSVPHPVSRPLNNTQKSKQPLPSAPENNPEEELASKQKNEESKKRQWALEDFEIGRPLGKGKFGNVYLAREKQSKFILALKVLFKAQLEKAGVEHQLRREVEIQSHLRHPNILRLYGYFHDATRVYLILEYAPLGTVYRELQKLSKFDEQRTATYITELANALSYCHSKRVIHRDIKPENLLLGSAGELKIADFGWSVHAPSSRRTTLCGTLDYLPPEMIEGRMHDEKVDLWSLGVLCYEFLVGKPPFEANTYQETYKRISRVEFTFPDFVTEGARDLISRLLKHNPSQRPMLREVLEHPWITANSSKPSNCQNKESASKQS

[7] = biological target: panel of more than 300 wild-type and mutant kinases (313 kinase panel) (Homo sapiens, UniProt O94804)
panel of more than 300 wild-type and mutant kinases (313 kinase panel) (Homo sapiens, UniProt O94804), sequence (O94804 whole entry, change not shown): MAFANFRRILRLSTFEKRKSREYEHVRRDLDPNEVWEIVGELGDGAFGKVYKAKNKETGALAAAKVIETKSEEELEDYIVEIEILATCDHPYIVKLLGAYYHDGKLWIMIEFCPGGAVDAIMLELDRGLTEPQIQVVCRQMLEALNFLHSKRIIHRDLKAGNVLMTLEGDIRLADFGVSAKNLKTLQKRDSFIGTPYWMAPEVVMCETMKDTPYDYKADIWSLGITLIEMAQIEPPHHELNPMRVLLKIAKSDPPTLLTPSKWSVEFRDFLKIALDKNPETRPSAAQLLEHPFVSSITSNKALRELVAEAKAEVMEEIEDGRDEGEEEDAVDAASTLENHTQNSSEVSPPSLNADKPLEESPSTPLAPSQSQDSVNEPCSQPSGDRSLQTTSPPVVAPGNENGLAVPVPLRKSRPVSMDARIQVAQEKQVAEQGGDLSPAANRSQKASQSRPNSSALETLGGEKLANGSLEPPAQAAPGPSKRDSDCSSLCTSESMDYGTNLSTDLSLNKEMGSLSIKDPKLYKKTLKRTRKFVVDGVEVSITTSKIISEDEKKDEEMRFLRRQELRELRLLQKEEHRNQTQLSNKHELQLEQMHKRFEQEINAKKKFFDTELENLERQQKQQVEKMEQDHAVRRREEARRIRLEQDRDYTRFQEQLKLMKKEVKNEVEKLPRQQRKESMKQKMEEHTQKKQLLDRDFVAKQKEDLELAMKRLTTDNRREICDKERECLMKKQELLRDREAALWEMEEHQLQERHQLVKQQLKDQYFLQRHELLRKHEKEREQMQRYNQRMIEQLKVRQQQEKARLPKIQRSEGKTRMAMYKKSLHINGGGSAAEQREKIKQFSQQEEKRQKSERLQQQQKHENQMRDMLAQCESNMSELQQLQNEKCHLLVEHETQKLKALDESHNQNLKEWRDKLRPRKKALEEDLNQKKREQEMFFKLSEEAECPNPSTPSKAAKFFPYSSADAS

[8] = biological target: panel of more than 300 wild-type and mutant kinases (313 kinase panel) (Homo sapiens, UniProt P28482)
[9] = kinase AurA/TPX2, 1 μM compound

Row | Compound | %-inhibition of LTK ([1]; kinase LTK, compound at 1 μM) | %-inhibition of p38β ([2]; kinase p38β, 1 μM) | %-inhibition of IKKε ([3]; kinase IKKε, compound at 1 μM) | %-inhibition of MRCKα ([4]; kinase MRCKα, 1 μM) | %-inhibition of TTK ([5]; kinase TTK, compound at 1 μM) | %-inhibition, AurA/TPX2 [6, 9] | %-inhibition, AurA ([6]; kinase AurA, 1 μM compound) | %-inhibition of LOK ([7]; kinase LOK, compound at 1 μM) | %-inhibition of Erk2 ([8]; kinase Erk2, compound at 1 μM) | also measured
1 | COc1cc(Nc2c(C#N)cnc3cc(OCCCN4CCN(C)CC4)c(OC)cc23)c(Cl)cc1Cl [bosutinib] | 59% | -0.299% | 4.39% | – | – | – | – | – | – | –
2 | COc1cc2nccc(Oc3ccc(NC(=O)C4(C(=O)Nc5ccc(F)cc5)CC4)cc3)c2cc1OC [cabozantinib] | 61% | 33% | -7.58% | 0.575% | 2.75% | 29% | 54% | 96% | -8% | –
3 | C[C@@H](Oc1cc(-c2cnn(C3CCNCC3)c2)cnc1N)c1c(Cl)ccc(F)c1Cl [crizotinib] | – | – | 7.49% | -8% | -9% | – | – | 98% | -4.58% | –
4 | CC(C)(C)c1nc(-c2cccc(NS(=O)(=O)c3c(F)cccc3F)c2F)c(-c2ccnc(N)n2)s1 [dabrafenib] | 2.67% | 5.3% | 15% | -1.84% | -22% | – | – | – | -8% | –
5 | Cc1nc(Nc2ncc(C(=O)Nc3c(C)cccc3Cl)s2)cc(N2CCN(CCO)CC2)n1 [dasatinib] | – | – | – | – | – | 22% | – | – | – | –
6 | C#Cc1cccc(Nc2ncnc3cc(OCCOC)c(OCCOC)cc23)c1 [erlotinib] | – | – | – | – | – | – | – | – | – | %-inhibition of MRCKα ([4]; 1 µM): -6%; %-inhibition of TTK ([5]; 1 µM): 6.42%; %-inhibition, AurA ([6]; 1 µM): 29%; %-inhibition, AurA/TPX2 ([6]; 1 µM): 1.46%; %-inhibition of LTK ([1]; 1 µM): 41%; %-inhibition of LOK ([7]; 1 µM): 93%; %-inhibition of p38β ([2]; 1 µM): -4%; %-inhibition of IKKε ([3]; 1 µM): 5%; %-inhibition of Erk2 ([8]; 1 µM): -2%
7 | CO[C@H]1C[C@@H]2CC[C@@H](C)[C@@](O)(O2)C(=O)C(=O)N2CCCC[C@H]2C(=O)O[C@H]([C@H](C)C[C@@H]2CC[C@@H](OCCO)[C@H](OC)C2)CC(=O)[C@H](C)/C=C(\C)[C@@H](O)[C@@H](OC)C(=O)[C@H](C)C[C@H](C)/C=C/C=C/C=C/1C [everolimus] | -12% | -4.49% | -10% | -6% | -2.68% | -4.51% | 3.74% | -9% | -7.44% | –
8 | O=S(=O)(c1cccc2cnccc12)N1CCCNCC1 [fasudil] | -3.76% | -2.17% | -1.77% | -2.54% | -11% | -1.11% | -2% | 11% | -7% | –
9 | Cc1ccc(Nc2nccc(N(C)c3ccc4c(C)n(C)nc4c3)n2)cc1S(N)(=O)=O [pazopanib] | 27% | 18% | 0% | -2.17% | 31% | – | – | 70% | -0.636% | –
10 | Cc1ccc(C(=O)Nc2ccc(CN3CCN(C)CC3)c(C(F)(F)F)c2)cc1C#Cc1cnc2cccnn12 [ponatinib] | 85% | 101% | -9% | -0.575% | – | -3.42% | 9% | – | – | –
11 | CCN(CC)CCNC(=O)c1c(C)[nH]c(/C=C2\C(=O)Nc3ccc(F)cc32)c1C [sunitinib] | 81% | – | – | – | – | 72% | 81% | 92% | – | –
12 | COc1cc2c(Nc3ccc(Br)cc3F)ncnc2cc1OCC1CCN(C)CC1 [vandetanib] | – | 7% | -6.49% | -6% | 3% | – | – | 92% | -4% | –
